{"source": "paper PMC11969009", "about": "(Nature Communications, 2025)", "key": {"SARS-CoV-2 PLpro [1]": {"target": "T1, SARS-CoV-2 PLpro (Severe acute respiratory syndrome coronavirus 2, UniProt P0DTD1)", "test": "biochemical", "parameters": "inhibition of SARS-CoV-2 PLpro, UbRh dose-response replicate value: unit: %"}, "[2]": {"test_system": "SARS-CoV-2 clinical isolate VIC001", "test": "microbe, parasite or virus in culture", "assay_type": "cell-based"}, "OC43 PLpro": {"target": "OC43 PLpro (Human coronavirus OC43, UniProt P0C6X6)", "sequence (P0C6X6 1561-1872 limits assumed)": "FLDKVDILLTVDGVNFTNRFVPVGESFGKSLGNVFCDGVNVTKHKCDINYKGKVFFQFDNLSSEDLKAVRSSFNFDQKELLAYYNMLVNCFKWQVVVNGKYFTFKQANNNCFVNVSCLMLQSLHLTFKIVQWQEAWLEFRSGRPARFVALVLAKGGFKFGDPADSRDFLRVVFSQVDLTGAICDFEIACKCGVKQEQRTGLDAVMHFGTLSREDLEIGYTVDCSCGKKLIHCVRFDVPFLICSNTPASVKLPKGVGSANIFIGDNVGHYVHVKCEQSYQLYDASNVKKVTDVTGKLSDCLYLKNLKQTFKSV", "assay_type": "biochemical", "parameters": "unit not given here"}, "MERS-CoV PLpro": {"target": "MERS-CoV PLpro (Middle East respiratory syndrome-related coronavirus, UniProt K9N7C7)", "sequence (K9N7C7 1482-1803 limits assumed)": "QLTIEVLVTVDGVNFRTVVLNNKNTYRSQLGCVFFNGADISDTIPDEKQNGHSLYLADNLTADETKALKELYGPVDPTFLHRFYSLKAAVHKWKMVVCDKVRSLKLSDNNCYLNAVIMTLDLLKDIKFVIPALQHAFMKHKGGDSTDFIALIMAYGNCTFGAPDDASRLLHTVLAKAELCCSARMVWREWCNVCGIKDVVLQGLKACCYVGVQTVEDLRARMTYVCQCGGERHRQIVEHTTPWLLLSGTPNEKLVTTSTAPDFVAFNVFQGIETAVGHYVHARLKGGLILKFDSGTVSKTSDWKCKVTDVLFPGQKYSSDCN", "assay_type": "biochemical", "parameters": "unit: %"}, "HKU1 PLpro": {"target": "HKU1 PLpro (Human coronavirus HKU1, UniProt P0C6X2)", "sequence (P0C6X2 1648-1958 limits assumed)": "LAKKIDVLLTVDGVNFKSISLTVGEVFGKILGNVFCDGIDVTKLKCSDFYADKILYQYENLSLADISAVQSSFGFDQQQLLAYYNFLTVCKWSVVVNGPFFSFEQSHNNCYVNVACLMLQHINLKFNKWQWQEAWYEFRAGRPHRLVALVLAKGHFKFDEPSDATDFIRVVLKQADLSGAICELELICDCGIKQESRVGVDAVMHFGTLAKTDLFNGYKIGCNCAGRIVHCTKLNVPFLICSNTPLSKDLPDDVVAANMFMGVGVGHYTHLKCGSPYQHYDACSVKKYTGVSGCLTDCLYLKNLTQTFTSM", "test": "biochemical", "assay_type": "biochemical", "parameters": "inhibition of HKU1 PLpro, UbRh dose-response replicate value: unit: %"}, "SARS-CoV-2 PLpro [3]": {"target": "T1, SARS-CoV-2 PLpro", "test": "biochemical", "assay_type": "binding"}}, "note": "Several values for one entry are separate records, joined by “and”; a condition that tells them apart may be missing. Equal entries are not always repeated. Where two headings read alike, the source gives them in different places."}
{"molecule": "CO/N=C(/c1ccc2cc(OC)ccc2c1)[C@@H]1CCCN([C@H]2CC[C@@H](O)CC2)C1", "note": "[WEHI-P4]", "values": [{"measurement": "inhibition at 0.00675 µM", "setting": "SARS-CoV-2 PLpro [1]; Conc 0.00675 µM, read-out: inhibition of SARS-CoV-2 PLpro, UbRh dose-response replicate value", "value": 23.8, "unit": "%"}, {"measurement": "inhibition of SARS-CoV-2 PLpro, UbRh dose-response replicate value", "setting": "SARS-CoV-2 PLpro [1]; Conc 0.0149 µM", "value": "22.1269 and 15.6043 and 12.3348"}, {"measurement": "inhibition at 0.0149 µM", "setting": "SARS-CoV-2 PLpro [1]; Conc 0.0149 µM, read-out: inhibition of SARS-CoV-2 PLpro, UbRh dose-response replicate value", "value": 20.2, "unit": "%"}, {"measurement": "inhibition of SARS-CoV-2 PLpro, UbRh dose-response replicate value", "setting": "SARS-CoV-2 PLpro [1]; Conc 0.0448 µM", "value": "70.4961 and 67.8098 and 82.9795"}, {"measurement": "inhibition at 0.0448 µM", "setting": "SARS-CoV-2 PLpro [1]; Conc 0.0448 µM, read-out: inhibition of SARS-CoV-2 PLpro, UbRh dose-response replicate value", "value": 69.6, "unit": "%"}, {"measurement": "inhibition of SARS-CoV-2 PLpro, UbRh dose-response replicate value", "setting": "SARS-CoV-2 PLpro [1]; Conc 0.545 µM", "value": "96.1218 and 96.9708 and 96.4204 and 99.1563 and 99.6768 and 97.5259 and 100.026"}, {"measurement": "inhibition at 0.545 µM", "setting": "SARS-CoV-2 PLpro [1]; Conc 0.545 µM, read-out: inhibition of SARS-CoV-2 PLpro, UbRh dose-response replicate value", "value": 94.8, "unit": "%"}, {"measurement": "inhibition of SARS-CoV-2 PLpro, UbRh dose-response replicate value", "setting": "SARS-CoV-2 PLpro [1]; Conc 1.63 µM", "value": "99.7919 and 99.9266 and 100.674"}, {"measurement": "inhibition at 1.63 µM", "setting": "SARS-CoV-2 PLpro [1]; Conc 1.63 µM, read-out: inhibition of SARS-CoV-2 PLpro, UbRh dose-response replicate value", "value": 99.9, "unit": "%"}, {"measurement": "inhibition of SARS-CoV-2 PLpro, UbRh dose-response replicate value", "setting": "SARS-CoV-2 PLpro [1]; Conc 1.64 µM", "value": "100.528 and 98.3984 and 97.5602"}, {"measurement": "inhibition at 1.64 µM", "setting": "SARS-CoV-2 PLpro [1]; Conc 1.64 µM, read-out: inhibition of SARS-CoV-2 PLpro, UbRh dose-response replicate value", "value": 101, "unit": "%"}, {"measurement": "inhibition of SARS-CoV-2 PLpro, UbRh dose-response replicate value", "setting": "SARS-CoV-2 PLpro [1]; Conc 3.63 µM", "value": "107.19 and 107.537 and 118.551"}, {"measurement": "inhibition at 3.63 µM", "setting": "SARS-CoV-2 PLpro [1]; Conc 3.63 µM, read-out: inhibition of SARS-CoV-2 PLpro, UbRh dose-response replicate value", "value": 108, "unit": "%"}, {"measurement": "inhibition of SARS-CoV-2 PLpro, UbRh dose-response replicate value", "setting": "SARS-CoV-2 PLpro [1]; Conc 4.9 µM", "value": "99.5845 and 98.2639 and 99.0831 and 98.0118 and 99.4255 and 97.4945 and 99.077"}, {"measurement": "inhibition at 4.9 µM", "setting": "SARS-CoV-2 PLpro [1]; Conc 4.9 µM, read-out: inhibition of SARS-CoV-2 PLpro, UbRh dose-response replicate value", "value": 99.1, "unit": "%"}, {"measurement": "inhibition of SARS-CoV-2 PLpro, UbRh dose-response replicate value", "setting": "SARS-CoV-2 PLpro [1]; Conc 98 µM", "value": "106.984 and 107.551 and 120.253"}, {"measurement": "inhibition at 98 µM", "setting": "SARS-CoV-2 PLpro [1]; Conc 98 µM, read-out: inhibition of SARS-CoV-2 PLpro, UbRh dose-response replicate value", "value": 107, "unit": "%"}, {"measurement": "IC50", "setting": "SARS-CoV-2 PLpro [1]; IC50 (UbRh) SARS-CoV-2 PLpro, Supplementary Fig. 2b", "value": 32, "unit": "nM"}, {"measurement": "inhibition at […]", "setting": "SARS-CoV-2 PLpro [1]; read-out: inhibition of SARS-CoV-2 PLpro, UbRh dose-response replicate value", "value": "93.6% and 81.4% and 107% (2×) and 108% and 105% and 99.2% and 92.6%"}, {"measurement": "EC50", "setting": "[2]; Severe acute respiratory syndrome coronavirus 2, Vero, read-out: Antiviral EC50 (plaque assay)", "value": 400, "unit": "nM"}, {"measurement": "EC50", "setting": "[2]; Severe acute respiratory syndrome coronavirus 2, Vero, read-out: Antiviral EC50 (plaque assay) with Pgp inhibitor", "value": 306, "unit": "nM"}, {"measurement": "EC50", "setting": "[2]; read-out: Antiviral EC50 (plaque assay)", "value": 410, "unit": "nM"}, {"measurement": "inhibition of OC43 PLpro, UbRh dose-response replicate value", "setting": "OC43 PLpro", "value": "-2.257 and 2.5807 and 4.868 and -0.1188 and -1.486 and 1.4475 and 10.2923 and 5.639 and 2.747 and 1.253 and 10.74 and 6.439 and 0.2359 and 1.058 and 1.648 and 0.7875 and 3.338 and 4.936 and 12.7203 and 5.2479"}, {"measurement": "inhibition of OC43 PLpro, UbRh dose-response replicate value", "setting": "OC43 PLpro; Conc 0.00498 µM", "value": "-1.019 and 4.2451 and 4.799 and 3.755"}, {"measurement": "inhibition of OC43 PLpro, UbRh dose-response replicate value", "setting": "OC43 PLpro; Conc 0.0149 µM", "value": "3.285 and -5.104 and 7.176 and 0.6631"}, {"measurement": "inhibition of OC43 PLpro, UbRh dose-response replicate value", "setting": "OC43 PLpro; Conc 0.0448 µM", "value": "1.599 and 3.82 and 6.435 and 3.684"}, {"measurement": "inhibition of OC43 PLpro, UbRh dose-response replicate value", "setting": "OC43 PLpro; Conc 3.63 µM", "value": "-4.48 and 0.0664 and 5.368 and 1.321"}, {"measurement": "inhibition of OC43 PLpro, UbRh dose-response replicate value", "setting": "OC43 PLpro; Conc 98 µM", "value": "8.342 and 5.591 and 3.318 and 3.826"}, {"measurement": "inhibition of MERS-CoV PLpro, UbRh dose-response replicate value", "setting": "MERS-CoV PLpro", "value": "-2.626 and 0.2924 and -2.097 and -1.6716 and -0.7294 and -2.565 and -2.287 and 0.1452 and -3.504 and -2.889 and 1.578 and -2.541 and -3.292 and -3.12 and -0.8701 and -1.654 and -2.848 and 0.1888 and -1.626"}, {"measurement": "inhibition of MERS-CoV PLpro, UbRh dose-response replicate value", "setting": "MERS-CoV PLpro; Conc 0.00498 µM", "value": "2.537 and 1.088 and 4.818 and -0.3578"}, {"measurement": "inhibition of MERS-CoV PLpro, UbRh dose-response replicate value", "setting": "MERS-CoV PLpro; Conc 0.0149 µM", "value": "0.4714 and 1.45 and -3.026 and -3.057"}, {"measurement": "inhibition of MERS-CoV PLpro, UbRh dose-response replicate value", "setting": "MERS-CoV PLpro; Conc 0.0448 µM", "value": "0.04351 and -1.536 and 0.7971 and -3.294"}, {"measurement": "inhibition of MERS-CoV PLpro, UbRh dose-response replicate value", "setting": "MERS-CoV PLpro; Conc 3.63 µM", "value": "-1.9557 and -1.916 and -5.199 and -5.618"}, {"measurement": "inhibition of MERS-CoV PLpro, UbRh dose-response replicate value", "setting": "MERS-CoV PLpro; Conc 98 µM", "value": "-3.229 and -4.988 and -1.6159 and -4.525"}, {"measurement": "inhibition of HKU1 PLpro, UbRh dose-response replicate value", "setting": "HKU1 PLpro", "value": "1.705 and -0.1054 and 2.2991 and 4.234 and 8.121 and -2.271 and 3.812 and 1.385 and 5.008 and 9.904 and 4.3232 and 13.1694 and 12.2718 and 4.484 and 1.663 and 12.2999 and 8.634 and 4.883 and 1.702 and 14.2701"}, {"measurement": "inhibition of HKU1 PLpro, UbRh dose-response replicate value", "setting": "HKU1 PLpro; Conc 0.00498 µM", "value": "10.7444 and 9.596 and 9.063"}, {"measurement": "inhibition at 0.00498 µM", "setting": "HKU1 PLpro; Conc 0.00498 µM, read-out: inhibition of HKU1 PLpro, UbRh dose-response replicate value", "value": 6.7, "unit": "%"}, {"measurement": "inhibition of HKU1 PLpro, UbRh dose-response replicate value", "setting": "HKU1 PLpro; Conc 0.0149 µM", "value": "6.961 and -0.5687 and 9.316 and 1.404"}, {"measurement": "inhibition of HKU1 PLpro, UbRh dose-response replicate value", "setting": "HKU1 PLpro; Conc 0.0448 µM", "value": "2.999 and 18.114 and 6.887 and 6.926"}, {"measurement": "inhibition of HKU1 PLpro, UbRh dose-response replicate value", "setting": "HKU1 PLpro; Conc 3.63 µM", "value": "-1.799 and 2.922 and 4.67 and 5.455"}, {"measurement": "inhibition of HKU1 PLpro, UbRh dose-response replicate value", "setting": "HKU1 PLpro; Conc 98 µM", "value": "-6.574 and 1.985 and 4.593 and -1.2047"}, {"measurement": "Kd", "setting": "SARS-CoV-2 PLpro [3]", "value": 18, "unit": "nM"}, {"measurement": "Response (RU), report points", "setting": "SARS-CoV-2 PLpro [3]", "value": "23.5521 RU and 19.8909 RU and 21.8514 RU and 23.0991 RU and 23.6093 RU and 23.8360 RU"}]}
